Measurements taken from patent publication US8343959B2, “N-phenyl-(piperazinyl or homopiperazinyl)-benzenesulfonamide or benzenesulfonyl-phenyl-(piperazine or homopiperazine) compounds suitable for treating disorders that respond to modulation of the serotonin 5-HT6 receptor” (Abbott GmbH & Co. KG, priority 2009, dated 2013).
Structures can show the parent of a compound that is named as a salt.

target: T1, h-5-HT6 receptor (Homo sapiens, UniProt P50406); experiment: 5-HT6 receptor binding assay (displacement of [3H]-LSD); conditions: not given
T1 construct: expressed in transfected cells
T1 sequence (P50406 whole entry): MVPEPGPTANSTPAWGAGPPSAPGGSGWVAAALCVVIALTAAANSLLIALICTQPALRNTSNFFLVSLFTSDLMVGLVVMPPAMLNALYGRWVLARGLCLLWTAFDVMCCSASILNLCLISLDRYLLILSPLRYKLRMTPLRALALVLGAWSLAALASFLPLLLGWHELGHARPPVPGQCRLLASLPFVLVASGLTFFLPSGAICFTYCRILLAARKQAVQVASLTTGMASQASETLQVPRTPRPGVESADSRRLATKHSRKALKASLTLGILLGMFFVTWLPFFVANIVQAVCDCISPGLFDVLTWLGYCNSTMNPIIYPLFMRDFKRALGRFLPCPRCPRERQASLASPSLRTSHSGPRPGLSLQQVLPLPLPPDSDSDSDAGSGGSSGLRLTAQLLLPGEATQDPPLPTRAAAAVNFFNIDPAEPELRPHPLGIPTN
Experimental: Displacement of Radioligands Binding to The Following Cloned Human Receptors
Cells from stable clonal cell lines expressing the corresponding receptor (5-HT6, α1-adrenergic, dopamine D2 or histamine H1 receptors) were washed with PBS (w/o Ca^++, Mg^++) and harvested in PBS with 0.02% EDTA. The cells were collected by centrifugation at 500 g for 10 min. at 4° C., washed with PBS and centrifuged (500 g, 10 min. 4° C.). The pellets were stored at −80° C. until use. For membrane preparation, the thawed cell pellet was resuspended in ice-cold sucrose buffer (0.25 M sucrose, 10 mM Hepes (pH 7.4), 1 mM Phenylmethylsulfonyl fluoride (PMSF) in DMSO, 5 μg/ml Pepstatin-A, 3 mM EDTA, 0.025% Bacitracin) and homogenized with a Branson Sonifier W-250 (Settings: Timer 4; Output Control 3; Duty Cycle constant; 2 to 3 cycles). Cell disruption was checked with the aid of a microscope. Remaining unbroken cells were pelleted at 1.000 g for 10 min. at 4° C. The sucrose buffer supernatant was then centrifuged at 60.000 g for 1 h at 4° C. (Beckman Ultrazentrifuge XL 80). The pellet was resuspended in 30 ml ice-cold Tris buffer (20 mM TRIS (pH 7.4), 5 μg/ml Pepstatin A, 0.1 mM PMSF, 3 mM EDTA) by pipetting through a 10 ml serological pipet and centrifuged for 1 h at 4° C. at 60.000 g. A final resuspension was performed in a small volume of ice-cold Tris buffer (see above) by pressing through a serological pipet followed by ultrasonic treatment with a Branson Sonifier W-250 (Settings: Timer 1; Output Control 3; Duty Cycle constant; 1 cycle). Protein concentration was determined (BCA-Kit; Pierce) and aliquots stored at −80° C. or in liquid nitrogen for long-term storage.
All receptor binding experiments were carried out in the corresponding assay buffer in a total volume of 200 μl in the presence of various concentrations of test compound (10^−5 M to 10^−9 M, tenfold serial dilution, duplicate determinations). The assays were terminated by filtration on polyethylenimine (PEI 0.1% or 0.3%) presoaked Packard Unifilter Plates (GF/C or GF/B) with a Tomtec Machin U 96 well-plate harvester. After the plates had been dried for 2 h at 55° C. in a drying chamber scintillation cocktail (BetaPlate Scint; PerkinElmer) was added. Radioactivity was measured in a Microbeta Trilux two hours after the addition of the scintillation mixture. Data derived from liquid scintillation counting were analysed by iterative non-linear regression analysis with the use of the Statistical Analysis System (SAS): a program similar to “LIGAND” as described by Munson and Rodbard (Analytical Biochemistry 107, 220-239 (1980).
HEK293 cells stably expressing the h-5-HT6 receptor (NCBI Reference Sequence XM 001435) were cultured in RPMI1640 medium supplemented with 25 mM HEPES, 10% fetal calf serum and 1-2 mM glutamine. The membrane preparation was performed as described in section 1. […] Non-specific binding was defined with 1 μM methiothepin. The binding reaction was carried out for 3.5 h at room temperature. During the incubation, the plates were shaken on a plate shaker at 100 rpm and terminated by filtration on Packard Unifilter GF/C (0.1% PEI) plates, followed by 2 wash cycles with ice-cold 50 mM Tris-HCl, 5 mM CaCl2.
Data derived from liquid scintillation counting were analyzed by iterative non-linear regression analysis with the use of the Statistical Analysis System (SAS): a program similar to “LIGAND” as described by Munson and Rodbard (Anal. Biochem. 1980, 107, 220-239). Fitting was performed according to formulae described by Feldman (Anal. Biochem. 1972, 48, 317-338). IC50, nH and Ki values were expressed as geometrical mean.

| SMILES | Ki [nM] |
| --- | --- |
| Cc1ccc(S(=O)(=O)Nc2ccc(OC(F)F)cc2)cc1N1CCNCC1 [Example 7, N-(4-Difluoromethoxy-phenyl)-4-methyl-3-piperazin-1-yl-benzenesulfonamide hydrochloride] | < 50 |

same assay, conditions: membranes of HEK293 cells expressing h-5-HT6 receptor, 1 nM [3H]-LSD; read-out: Ki (5HT6)

| Ki [nM] | SMILES |
| --- | --- |
| < 50 | Cc1ccc(NS(=O)(=O)c2ccc(C)c(N3CCN(C)CC3)c2)c(OC(F)F)c1 [Example 91, N-(2-Difluoromethoxy-4-methyl-phenyl)-4-methyl-3-(4-methyl-piperazin-1-yl)-benzenesulfonamide hydrochloride] |
| < 10 | COc1ccc(S(=O)(=O)Nc2cc(C)ccc2OC(F)F)cc1N1CCNCC1 [Example 72, N-(2-Difluoromethoxy-5-methyl-phenyl)-4-methoxy-3-piperazin-1-yl-benzenesulfonamide hydrochloride] |
| < 10 | Cc1ccc(S(=O)(=O)Nc2cccc(OC(F)F)c2)cc1N1CCCN(C)CC1 [Example 101, N-(3-Difluoromethoxy-phenyl)-4-methyl-3-(4-methyl-[1,4]diazepan-1-yl)-benzenesulfonamide hydrochloride] |
| < 10 | CCc1ccc(S(=O)(=O)Nc2cc(C)ccc2OC(F)F)cc1N1CCN(C)CC1 [Example 54, N-(2-Difluoromethoxy-5-methyl-phenyl)-4-ethyl-3-(4-methyl-piperazin-1-yl)-benzenesulfonamide] |
| < 10 | Cc1ccc(S(=O)(=O)Nc2ccccc2OC(F)F)cc1N1CCCNCC1 [Example 97, 3-[1,4]Diazepan-1-yl-N-(2-difluoromethoxy-phenyl)-4-methyl-benzenesulfonamide hydrochloride] |
| < 10 | COc1ccc(S(=O)(=O)Nc2ccc(C)cc2OC(F)F)cc1N1CCN(C)CC1 [Example 70, N-(2-Difluoromethoxy-4-methyl-phenyl)-4-methoxy-3-(4-methyl-piperazin-1-yl)-benzenesulfonamide hydrochloride] |
| < 10 | COc1ccc(S(=O)(=O)Nc2ccc(F)cc2OC(F)F)cc1N1CCN(C)CC1 [Example 69, N-(2-Difluoromethoxy-4-fluoro-phenyl)-4-methoxy-3-(4-methyl-piperazin-1-yl)-benzenesulfonamide hydrochloride] |
| < 10 | COc1ccc(NS(=O)(=O)c2ccc(OC)c(N3CCNCC3)c2)cc1OC(F)F [Example 25, N-(3-Difluoromethoxy-4-methoxy-phenyl)-4-methoxy-3-piperazin-1-yl-benzenesulfonamide hydrochloride] |
| < 10 | CCc1ccc(S(=O)(=O)Nc2cc(Cl)ccc2OC(F)F)cc1N1CCNCC1 [Example 61, N-(5-Chloro-2-difluoromethoxy-phenyl)-4-ethyl-3-piperazin-1-yl-benzenesulfonamide hydrochloride] |
| < 10 | CCCN(c1cccc(OC(F)F)c1)S(=O)(=O)c1ccc(OC)c(N2CCNCC2)c1 [Example 34, N-(3-Difluoromethoxy-phenyl)-4-methoxy-3-piperazin-1-yl-N-propyl-benzenesulfonamide hydrochloride] |
| < 50 | Cc1ccc(S(=O)(=O)Nc2cccc(OC(F)F)c2)cc1N1CCCNCC1 [Example 96, 3-[1,4]Diazepan-1-yl-N-(3-difluoromethoxy-phenyl)-4-methyl-benzenesulfonamide hydrochloride] |
| < 10 | COc1ccc(S(=O)(=O)c2ccc(OC)c(N3CCNCC3)c2)cc1OC(F)F [Example 49, 1-[5-(3-Difluoromethoxy-4-methoxy-benzenesulfonyl)-2-methoxy-phenyl]-piperazine hydrochloride] |
| < 10 | COc1ccc(S(=O)(=O)Nc2ccc(C)c(OC(F)F)c2)cc1N1CCN(C)CC1 [Example 89, N-(3-Difluoromethoxy-4-methyl-phenyl)-4-methoxy-3-(4-methyl-piperazin-1-yl)-benzenesulfonamide hydrochloride] |
| < 10 | COc1ccc(S(=O)(=O)Nc2cc(OC(F)F)ccc2C)cc1N1CCN(C)CC1 [Example 55, N-(5-Difluoromethoxy-2-methyl-phenyl)-4-methoxy-3-(4-methyl-piperazin-1-yl)-benzenesulfonamide hydrochloride] |
| < 50 | Cc1ccc(NS(=O)(=O)c2ccc(C)c(N3CCN(C)CC3)c2)cc1OC(F)F [Example 75, N-(3-Difluoromethoxy-4-methyl-phenyl)-4-methyl-3-(4-methyl-piperazin-1-yl)-benzenesulfonamide hydrochloride] |
| < 10 | COc1ccc(S(=O)(=O)Nc2ccccc2OC(F)F)cc1N1CCNCC1 [Example 26, N-(2-Difluoromethoxy-phenyl)-4-methoxy-3-piperazin-1-yl-benzenesulfonamide hydrochloride] |
| < 10 | Cc1ccc(OC(F)F)cc1NS(=O)(=O)c1ccc(C)c(N2CCNCC2)c1 [Example 58, N-(5-Difluoromethoxy-2-methyl-phenyl)-4-methyl-3-piperazin-1-yl-benzenesulfonamide hydrochloride] |
| < 50 | Cc1cc(NS(=O)(=O)c2ccc(C)c(N3CCN(C)CC3)c2)ccc1OC(F)F [Example 87, N-(4-Difluoromethoxy-3-methyl-phenyl)-4-methyl-3-(4-methyl-piperazin-1-yl)-benzenesulfonamide hydrochloride] |
| < 50 | Cc1ccc(S(=O)(=O)Nc2ccc(F)cc2OC(F)F)cc1N1CCN(C)CC1 [Example 79, N-(2-Difluoromethoxy-4-fluoro-phenyl)-4-methyl-3-(4-methyl-piperazin-1-yl)-benzenesulfonamide trifluoroacetate] |
| < 10 | COc1ccc(S(=O)(=O)Nc2ccc(OC(F)F)c(OC(F)F)c2)cc1N1CCNCC1 [Example 60, N-(3,4-Bis-difluoromethoxy-phenyl)-4-methoxy-3-piperazin-1-yl-benzenesulfonamide hydrochloride] |
| < 10 | COc1ccc(S(=O)(=O)Nc2cccc(OC(F)F)c2)cc1N1CCNCC1 [Example 24, N-(3-Difluoromethoxy-phenyl)-4-methoxy-3-piperazin-1-yl-benzenesulfonamide hydrochloride] |
| < 10 | CCc1ccc(S(=O)(=O)Nc2ccc(C)cc2OC(F)F)cc1N1CCNCC1 [Example 62, N-(2-Difluoromethoxy-4-methyl-phenyl)-4-ethyl-3-piperazin-1-yl-benzenesulfonamide hydrochloride] |
| < 10 | COc1ccc(S(=O)(=O)Nc2ccc(C)c(OC(F)F)c2)cc1N1CCNCC1 [Example 18, N-(3-Difluoromethoxy-4-methyl-phenyl)-4-methoxy-3-piperazin-1-yl-benzene-sulfonamide hydrochloride] |
| < 10 | CN1CCN(c2cccc(S(=O)(=O)Nc3ccccc3OC(F)F)c2)CC1 [Example 42, N-(2-Difluoromethoxy-phenyl)-3-(4-methyl-piperazin-1-yl)-benzenesulfonamide hydrochloride] |
| < 10 | CN1CCN(c2cccc(S(=O)(=O)c3cccc(OC(F)F)c3)c2)CC1 [Example 46, 1-[3-(3-Difluoromethoxy-benzenesulfonyl)-phenyl]-4-methyl-piperazine hydrochloride] |
| < 10 | COc1ccc(S(=O)(=O)Nc2cccc(OC(F)F)c2)cc1N1CCN(C)CC1 [Example 35, N-(3-Difluoromethoxy-phenyl)-4-methoxy-3-(4-methyl-piperazin-1-yl)-benzenesulfonamide hydrochloride] |
| < 500 | CCCN(c1ccccc1OC(F)F)S(=O)(=O)c1ccc(C)c(N2CCNCC2)c1 [Example 11, N-(2-Difluoromethoxy-phenyl)-4-methyl-3-piperazin-1-yl-N-propyl-benzene-sulfonamide hydrochloride] |
